According to article PMC11356571, “The Comparative Metabolism of a Novel Hepatocellular Carcinoma Therapeutic Agent, 2,3-Diamino-N-(4-(benzo[d]thiazol-2-yl)phenyl)propanamide, in Human and Animal Hepatocytes” (Metabolites, 2024):

Assays:
Type in all cases: in vitro ADME
CYP2C19 = target: T1, CYP2C19 (Homo sapiens, UniProt P33261); test: Incubation with human cDNA-expressed CYP2C19; details: CYP2C19, 30 min at 37 °C with NADPH; ETN101 10 μM or M1 1 μM
T1 construct: purchased Cypex Ltd. (Dundee, UK)
T1 sequence (P33261 whole entry): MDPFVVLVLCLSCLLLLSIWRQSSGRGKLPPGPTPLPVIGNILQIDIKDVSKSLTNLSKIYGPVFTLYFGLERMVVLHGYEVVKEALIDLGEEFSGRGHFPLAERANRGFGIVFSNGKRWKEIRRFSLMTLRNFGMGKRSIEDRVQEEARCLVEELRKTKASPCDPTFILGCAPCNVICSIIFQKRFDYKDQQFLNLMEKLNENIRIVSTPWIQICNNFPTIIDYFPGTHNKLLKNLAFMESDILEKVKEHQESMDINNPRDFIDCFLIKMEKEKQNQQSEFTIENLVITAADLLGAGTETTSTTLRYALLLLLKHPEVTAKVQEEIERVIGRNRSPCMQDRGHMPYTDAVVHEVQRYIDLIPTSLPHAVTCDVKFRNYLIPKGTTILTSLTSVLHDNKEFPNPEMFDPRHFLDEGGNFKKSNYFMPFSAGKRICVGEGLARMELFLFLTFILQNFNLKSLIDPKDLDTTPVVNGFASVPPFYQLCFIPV
Description: (§1) ETN101 or M1 was incubated with nine human cDNA-expressed CYP enzymes (1A2, 2A6, 2B6, 2C8, 2C9, 2C19, 2D6, 2E1, and 3A4) to identify the CYPs involved in the metabolism of ETN101. Based on the preliminary study, the incubation conditions were determined as follows: Briefly, reaction mixtures of 50 μL containing ETN101 (final concentration: 10 μM) or M1 (final concentration: 1 μM), and CYPs (final amount: 5 pmol for CYP1A2, 2A6, 2C8, 2C9, 2C19, 2D6, and 3A4; 10 pmol for CYP2B6 and 2E1) were prepared in 0.1 M potassium phosphate buffer. The reaction was initiated by adding 50 μL of NADPH- regenerating system; the mixtures were incubated for 0 min or 30 min at 37 °C in triplicate. Reactions were terminated by the addition of 100 μL of ice-cold acetonitrile containing the IS (camptothecin, 200 ng/mL). Samples were centrifuged at 13,000 rpm for 5 min at 4 °C. An aliquot of 2 μL supernatant was injected in LC–MS/MS system.
(§2) For enzyme characterization, an Agilent 6460 triple quadrupole mass spectrometer coupled with a 1260 HPLC system (Agilent Technologies, Santa Clara, CA, USA) and a Kinetex Halo® C18 column (2.7 μm, 2.1 × 50 mm, Advanced Material Technology, Wilmington, DE, USA) were used for chromatographic separation. […] ETN101, M1, and M2 were detected via MRM using ESI in the positive mode. […]

CYP2A6 = target: T2, CYP2A6 (Homo sapiens, UniProt P11509); test: Incubation with human cDNA-expressed CYP2A6; details: CYP2A6, 30 min at 37 °C with NADPH; ETN101 10 μM or M1 1 μM
T2 construct: purchased Corning Life Sciences (Woburn, MA, USA)
T2 sequence (P11509 1-494): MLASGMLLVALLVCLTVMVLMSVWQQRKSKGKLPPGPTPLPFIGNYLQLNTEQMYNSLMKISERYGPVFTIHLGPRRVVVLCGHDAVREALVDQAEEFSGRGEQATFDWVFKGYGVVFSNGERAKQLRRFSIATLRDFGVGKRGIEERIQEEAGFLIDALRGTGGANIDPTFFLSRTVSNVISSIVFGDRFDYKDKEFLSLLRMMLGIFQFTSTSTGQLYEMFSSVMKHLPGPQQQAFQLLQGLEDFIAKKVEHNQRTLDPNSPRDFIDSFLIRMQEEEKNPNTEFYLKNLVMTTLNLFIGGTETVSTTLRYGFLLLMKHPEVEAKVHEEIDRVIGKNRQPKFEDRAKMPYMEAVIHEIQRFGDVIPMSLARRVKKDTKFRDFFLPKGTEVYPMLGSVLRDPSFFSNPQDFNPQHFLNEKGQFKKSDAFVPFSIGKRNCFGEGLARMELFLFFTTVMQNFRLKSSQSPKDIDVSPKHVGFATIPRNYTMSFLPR
Description: as §1, §2

mouse hepatocytes = test: Metabolite characterization in mouse hepatocytes; details: mouse hepatocyte 1 h incubates of ETN101; ND:<1.2E+05 peak area
Description: We mixed 60 μL aliquots of 40 μM ETN101 in incubation medium and an equal volume of human, mouse, rat, dog, or monkey hepatocyte suspension in 96-well plates and incubated for 0 or 1 h in a CO2 incubator at 37 °C. The reactions were quenched by adding 120 µL of ice-cold acetonitrile to each well, and the cell suspension was sonicated for 5 min at 4 °C. Subsequently, centrifugation was carried out at 15,000× g for 10 min at 4 °C. Next, the supernatants were evaporated to dryness using a vacuum concentrator, and residues were re-dissolved in 70 μL of 30% acetonitrile. Each sample (5 μL aliquots) was analyzed using LC–HRMS system.
For metabolite characterization, a Vanquish HPLC system (Thermo Fisher Scientific, San José, CA, USA) coupled with a Q-Exactive Orbitrap mass spectrometer (Thermo Fisher Scientific Inc., Waltham, MA, USA) was used at Core Research Support Center for Natural Products and Medical Materials at Yeungnam University. […] The eluent from the column was directly injected into the mass spectrometer using a heated electrospray ionization (HESI) source in positive ionization mode. […] The spray voltage was 3.0 kV and the capillary temperature was 320 °C. Full scan MS^1 with a data-dependent MS^2 acquisition mode was applied to obtain MS^1 scan data ranging from m/z 80 to 900, at a resolution of 70,000, whereas data-dependent MS^2 spectra were acquired for the five most abundant peaks per cycle at a resolution of 35,000. The parallel reaction monitoring (PRM) mode was used to obtain the MS^2 spectra of putative metabolites detected at low peak intensities in the data-dependent MS^2 acquisition mode. Data were collected and interpreted using Thermo Scientific Xcalibur™ Software (Thermo Fisher Scientific).

Row | SMILES | Percentage remaining (CYP2C19) | Percentage remaining (CYP2A6) | Relative peak area (%) (mouse hepatocytes)
1 | NCC(N)C(=O)Nc1ccc(-c2nc3ccccc3s2)cc1 (stereo not drawn) [ETN101, 2,3-diamino-N-(4-(benzo[d]thiazol-2-yl)phenyl)propanamide] | 113.0% | 115.6% | 26.8%
2 | Nc1ccc(-c2nc3ccccc3s2)cc1 [M1, 2-(4-aminophenyl)benzothiazole] | 68.7% | 105.9% | 71.8%
